Source: ChEMBL document CHEMBL1201862, “PubChem BioAssay data set” (2004)
Activity calls are given as the source filed them.

What was measured:
BJ [1] = assay: cytotoxicity toward BJ-TERT fibroblasts, dose response, cell-based, RAS-independent, luminescence (AID 1933); format: functional; details: Homo sapiens
[2] = target: T1, Orexin/Hypocretin receptor type 1 (Homo sapiens, UniProt O43613); assay: (§1) Fluorescence-based cell-based high throughput dose response assay for antagonists of the orexin 1 receptor (OX1R; HCRTR1). [Related pubchem assays (depositor defined):AID434989, AID435008, AID463079, AID485270, AID492963, AID492964, AID492965, AID493232, AID504717, AID504718]; format: functional
T1 sequence (O43613 whole entry): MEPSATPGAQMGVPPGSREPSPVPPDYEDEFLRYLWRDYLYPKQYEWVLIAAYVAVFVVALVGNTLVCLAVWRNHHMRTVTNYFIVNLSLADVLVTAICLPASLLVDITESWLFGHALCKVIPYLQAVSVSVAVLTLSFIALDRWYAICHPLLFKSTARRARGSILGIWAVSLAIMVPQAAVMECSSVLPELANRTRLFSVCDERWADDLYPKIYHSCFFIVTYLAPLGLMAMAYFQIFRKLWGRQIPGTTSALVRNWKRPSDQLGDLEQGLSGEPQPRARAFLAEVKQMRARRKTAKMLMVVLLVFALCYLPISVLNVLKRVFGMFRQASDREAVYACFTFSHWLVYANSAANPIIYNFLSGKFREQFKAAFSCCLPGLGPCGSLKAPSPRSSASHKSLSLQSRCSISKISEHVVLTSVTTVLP

[3] = cytotoxicity toward DRD oncogenic fibroblasts, dose response, cell-based, non-viral oncogenic, luminescence (AID 1934); format: functional; details: Homo sapiens
BJ [4] = assay: cytotoxicity toward BJ-TERT-LT-ST fibroblasts, dose response, cell-based, RAS-independent, luminescence (AID 1935); format: functional; details: Homo sapiens;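 further: BJ fibroblasts immortalized with TERT plus LT and ST oncogenes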
[5] = Luminescence Cell-Based Dose Confirmation HTS to Identify Inhibitors of Platelet Dense Granule Release. [Related pubchem assays: 1663 (Primary HTS), 1678 (Summary of Project)]; format: functional
BJ [6] = assay: cytotoxicity toward Ras-transformed BJeLR fibroblasts, dose response, cell-based, alamar blue fluorescence, cherrypicked samples (AID 2631); format: functional; details: Homo sapiens;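 further: confirmatory dose-response assay in RAS-dependent BJ fibroblasts engineered with TERT, LT and ST, with cytotoxicity read by fluorescence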
CHO-K1 = assay: (§2) Counterscreen for antagonists of the orexin 1 receptor (OX1R; HCRTR1): Homogeneous time resolved fluorescence (HTRF)-based cell-based dose response assay to identify antagonists of the parental CHO-K1 cell line. [Related pubchem assays (depositor defined):AID434989, AID435008, AID463079, AID485270, AID492963, AID492964, AID492965, AID493232, AID504699, AID504701]; format: functional; details: Cricetulus griseus
BJ [7] = assay: cells; format: functional, cell-based; details: Homo sapiens
Jurkat = assay: antigen receptor-induced NF-kB inhibitors, dose response, Jurkat, luciferase reporter, luminescence, B- and T-cell (AID 489004); format: functional, cell-based; details: Homo sapiens;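 further: NF-kB luciferase reporter Jurkat cells stimulated with PMA plus ionomycin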
[8] = target: T1, Orexin/Hypocretin receptor type 1; assay: as §1, with “Homogeneous Time Resolved Fluorescence (HTRF)-based” for “Fluorescence-based”; format: functional
[9] = cytotoxicity in HEK-293T NF-kB-Luc cells, dose response, cytotoxicity control for B/T-cell NF-kB inhibitor project, cell-based, uHTS hits (AID 489019); format: functional;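 further: IC50 reflects cytotoxicity as loss of cell viability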
[10] = target: Luciferin 4-monooxygenase (Photinus pyralis, UniProt P08659); assay: firefly luciferase enzyme inhibitors, dose response, biochemical, luminescence (AID 1891)
Sequence of Luciferin 4-monooxygenase (P08659 whole entry): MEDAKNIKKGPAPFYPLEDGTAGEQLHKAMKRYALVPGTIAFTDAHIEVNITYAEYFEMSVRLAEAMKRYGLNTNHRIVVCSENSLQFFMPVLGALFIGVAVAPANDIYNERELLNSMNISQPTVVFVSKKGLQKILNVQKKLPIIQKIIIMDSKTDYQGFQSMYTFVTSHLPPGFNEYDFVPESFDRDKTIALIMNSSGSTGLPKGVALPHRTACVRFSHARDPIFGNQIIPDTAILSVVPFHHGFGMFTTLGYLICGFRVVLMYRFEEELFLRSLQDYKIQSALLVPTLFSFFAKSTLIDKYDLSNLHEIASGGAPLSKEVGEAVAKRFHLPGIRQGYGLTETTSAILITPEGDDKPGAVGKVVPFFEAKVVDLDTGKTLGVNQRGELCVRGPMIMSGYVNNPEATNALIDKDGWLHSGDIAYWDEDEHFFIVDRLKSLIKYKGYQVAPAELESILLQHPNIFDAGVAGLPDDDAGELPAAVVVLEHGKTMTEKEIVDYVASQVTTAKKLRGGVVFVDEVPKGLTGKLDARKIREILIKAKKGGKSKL

[11] = as §2, with “Fluorescence-based” for “Homogeneous time resolved fluorescence (HTRF)-based”, “cell-based high throughput” for “cell-based”, “CHO” for “CHO-K1”; format: functional
[12] = LGR2 antagonists, dose response, cell-based, HEK293, CRE-luciferase reporter, cherry pick, set 2 (AID 743343); format: functional;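 further: transfected cells were stimulated with diluted bursicon conditioned medium after compound addition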
[13] = HepG2 cell cytotoxicity, dose response, cytotoxicity control, plate reader, cherry-pick, antagonist series (AID 743416); format: functional, cell-based
Mu-type opioid receptor = Mu-type opioid receptor (Homo sapiens, UniProt P35372); assay: (§3) Counterscreen for agonists of heterodimerization of the mu 1 (OPRM1) and delta 1 (OPRD1) opioid receptors: Luminescence-based cell-based high throughput dose response assay to identify agonists of OPRM1 homodimerization.; format: functional
Sequence of Mu-type opioid receptor (P35372 whole entry): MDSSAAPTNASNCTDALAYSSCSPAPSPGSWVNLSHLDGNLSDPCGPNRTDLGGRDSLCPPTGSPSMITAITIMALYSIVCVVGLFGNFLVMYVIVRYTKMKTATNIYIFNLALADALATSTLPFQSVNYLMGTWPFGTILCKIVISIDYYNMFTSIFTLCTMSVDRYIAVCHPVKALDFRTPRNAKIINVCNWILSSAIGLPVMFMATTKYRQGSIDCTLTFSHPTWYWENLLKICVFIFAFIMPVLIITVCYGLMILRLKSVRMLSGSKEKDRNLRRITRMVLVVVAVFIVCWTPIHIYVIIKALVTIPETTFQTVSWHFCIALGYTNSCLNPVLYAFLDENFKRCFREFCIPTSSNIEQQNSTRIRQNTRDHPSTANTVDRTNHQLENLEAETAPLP

[14] = MC4R antagonists, dose response, counter-screen for LGR2 antagonist project, cell-based, plate reader, cherry pick (AID 743444); format: functional;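 further: transfected HEK 293 cells stimulated with alpha-MSH peptide; potency of inhibitors of the alpha-MSH evoked signal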
[15] = Luminescence Cell-Based Dose Response HTS to Identify Inhibitors of 5'UTR Stem-Loop Driven Prion Protein mRNA Translation in H4 Neuroglioblastoma Cells. [Related pubchem assays: 1827 (Project Summary), 1813 (Primary HTS)]; format: functional
[16] = A549 cell cytotoxicity, dose response, cytotoxicity control, plate reader, cherry-pick, antagonist series (AID 743412); format: functional, cell-based
[17] = target: Delta-type opioid receptor (Homo sapiens, UniProt P41143); assay: as §3, with “of OPRD1” for “of OPRM1”, “homodimerization. [Related pubchem assays (depositor defined):AID504326, AID504355, AID504692, AID504904, AID504905]” for “homodimerization.”; format: functional
Sequence of Delta-type opioid receptor (P41143 whole entry): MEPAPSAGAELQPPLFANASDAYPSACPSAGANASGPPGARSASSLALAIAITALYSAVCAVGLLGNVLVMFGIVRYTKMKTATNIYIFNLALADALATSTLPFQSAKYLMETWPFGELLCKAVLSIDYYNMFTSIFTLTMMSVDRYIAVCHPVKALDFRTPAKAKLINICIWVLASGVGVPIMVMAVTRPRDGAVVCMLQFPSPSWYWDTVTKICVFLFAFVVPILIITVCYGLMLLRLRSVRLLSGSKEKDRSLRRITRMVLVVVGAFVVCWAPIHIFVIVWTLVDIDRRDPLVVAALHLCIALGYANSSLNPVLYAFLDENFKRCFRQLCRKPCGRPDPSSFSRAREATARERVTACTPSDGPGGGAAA

[18] = inhibitors of firefly luciferase expression or activity, dose response, H4 neuroglioma cells, luminescence (AID 1990); format: functional, cell-based
[19] = HEK293 cell cytotoxicity, dose response, cytotoxicity control, plate reader, cherry-picked samples (AID 743446); format: functional, cell-based
INS1 = assay: beta cell apoptosis inhibitors, cytokine rescue, dose response, luminescence, retest (AID 449756); format: functional, cell-based; details: Rattus norvegicus;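 further: cell death triggered by IL-1 beta plus TNF-alpha plus IFN-gamma mixture; protective hits raise ATP signal compared with cytokine alone wells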
[20] = target: 5-hydroxytryptamine receptor 5A (Homo sapiens, UniProt P47898); assay: Counterscreen for agonists of OPRM1-OPRD1 heterodimerization: luminescence-based cell-based high throughput dose response assay to identify agonists of 5-hydroxytryptamine (serotonin) 5A receptor (HTR5A). [Related pubchem assays (depositor defined):AID504326, AID504355, AID504692, AID504904, AID504905]; format: functional
Sequence of 5-hydroxytryptamine receptor 5A (P47898 whole entry): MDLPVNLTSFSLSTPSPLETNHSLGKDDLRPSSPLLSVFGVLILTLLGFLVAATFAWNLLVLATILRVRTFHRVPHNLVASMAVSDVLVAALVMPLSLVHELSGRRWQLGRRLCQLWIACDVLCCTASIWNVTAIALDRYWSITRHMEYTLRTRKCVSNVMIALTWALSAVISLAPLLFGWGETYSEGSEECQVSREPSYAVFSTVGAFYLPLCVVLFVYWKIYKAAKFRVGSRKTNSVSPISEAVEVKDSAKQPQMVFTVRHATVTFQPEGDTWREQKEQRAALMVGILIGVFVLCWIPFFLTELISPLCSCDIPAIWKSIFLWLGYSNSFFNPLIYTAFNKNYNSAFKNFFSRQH

[21] = Luminescence Cell-Based Dose Retest to Confirm Inhibitors of Cancer Stem Cells. [Related pubchem assays (depositor defined):AID2717, AID2721]; format: functional; details: Homo sapiens
[22] = inhibitors of SNCA 5'UTR-driven reporter translation, confirmation, H4 neuroglioma cells, luminescence (AID 1988); format: functional, cell-based
[23] = target: T2, Rac GTPase-activating protein 1 (Homo sapiens, UniProt Q9H0H5); assay: MgcRacGAP GTPase-activating activity inhibitors, confirmation, biochemical, ADP Hunter fluorescence, primary and confirmatory (AID 624330); format: functional
T2 sequence (Q9H0H5 whole entry): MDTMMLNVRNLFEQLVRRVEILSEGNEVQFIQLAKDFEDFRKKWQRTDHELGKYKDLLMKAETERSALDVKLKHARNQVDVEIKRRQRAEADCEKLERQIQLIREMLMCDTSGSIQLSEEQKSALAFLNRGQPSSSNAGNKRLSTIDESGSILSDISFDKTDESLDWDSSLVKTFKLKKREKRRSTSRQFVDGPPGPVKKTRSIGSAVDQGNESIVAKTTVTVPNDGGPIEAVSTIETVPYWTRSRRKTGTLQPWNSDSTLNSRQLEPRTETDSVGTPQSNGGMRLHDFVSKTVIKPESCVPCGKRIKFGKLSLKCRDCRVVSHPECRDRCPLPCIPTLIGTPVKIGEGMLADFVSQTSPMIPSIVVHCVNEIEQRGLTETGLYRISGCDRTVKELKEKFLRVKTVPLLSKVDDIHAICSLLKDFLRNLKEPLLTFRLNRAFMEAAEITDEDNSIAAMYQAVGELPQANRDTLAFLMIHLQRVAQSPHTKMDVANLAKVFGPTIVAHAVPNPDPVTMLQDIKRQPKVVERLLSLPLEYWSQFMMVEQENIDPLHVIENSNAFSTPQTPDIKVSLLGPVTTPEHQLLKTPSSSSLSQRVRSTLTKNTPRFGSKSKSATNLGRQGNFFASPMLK

Large T antigen = Large T antigen (Simian virus 40, UniProt P03070); format: functional, Betapolyomavirus macacae;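 further: Confirmatory-stage PubChem screen for compounds that inhibit SV40 T antigen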
Sequence of Large T antigen (P03070 whole entry): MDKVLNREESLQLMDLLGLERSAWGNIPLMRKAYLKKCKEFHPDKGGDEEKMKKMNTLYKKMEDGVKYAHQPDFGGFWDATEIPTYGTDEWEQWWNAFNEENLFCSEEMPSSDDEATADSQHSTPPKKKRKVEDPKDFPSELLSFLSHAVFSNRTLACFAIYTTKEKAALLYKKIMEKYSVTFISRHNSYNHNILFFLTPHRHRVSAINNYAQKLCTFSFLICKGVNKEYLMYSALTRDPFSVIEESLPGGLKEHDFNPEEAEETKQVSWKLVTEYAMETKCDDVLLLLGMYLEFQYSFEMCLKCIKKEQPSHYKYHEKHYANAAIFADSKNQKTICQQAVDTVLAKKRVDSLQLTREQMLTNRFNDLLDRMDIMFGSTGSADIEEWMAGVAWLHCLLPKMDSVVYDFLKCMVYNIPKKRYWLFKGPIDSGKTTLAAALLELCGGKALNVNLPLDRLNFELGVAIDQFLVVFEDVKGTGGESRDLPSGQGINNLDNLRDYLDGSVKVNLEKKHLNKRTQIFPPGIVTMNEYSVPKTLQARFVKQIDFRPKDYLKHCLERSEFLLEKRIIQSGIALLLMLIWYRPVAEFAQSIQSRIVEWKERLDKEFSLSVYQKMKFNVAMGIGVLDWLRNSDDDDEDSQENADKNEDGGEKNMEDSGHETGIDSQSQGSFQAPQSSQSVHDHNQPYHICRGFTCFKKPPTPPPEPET

[24] = target: Dual specificity tyrosine-phosphorylation-regulated kinase 1A (Rattus norvegicus, UniProt Q63470); format: biochemical, Homo sapiens
Vero = assay: cells; format: functional, cell-based; details: Chlorocebus sabaeus

**Q.** Which EC50 (BJ [1]) does the source give for `CCn1c(C)nc2cc(-c3nc4n(n3)Cc3ccccc3-4)ccc21` here?
**A.** Its EC50 is 2.18 µM (active).

**Q.** What about the IC50 [2] of the same compound?
**A.** Its IC50 is 48.1 µM (inactive).

**Q.** What about the EC50 [3] of the same compound?
**A.** Its EC50 is 1.71 µM (active).

**Q.** What about the EC50 (BJ [4]) of the same compound?
**A.** Its EC50 is 6.25 µM (active).

**Q.** What about the EC50 [5] of the same compound?
**A.** The EC50 was 0.352 µM (active).

**Q.** What about the EC50 (BJ [6]) of the same compound?
**A.** The EC50 was > 133 µM (inactive).

**Q.** And the IC50 (CHO-K1)?
**A.** Its IC50 is > 66.2 µM (inactive).

**Q.** What about the EC50 (BJ [7]) of the same compound?
**A.** The EC50 was 1.76 µM (active).

**Q.** And the IC50 (Jurkat)?
**A.** The IC50 was 0.23 µM (active).

**Q.** And the IC50 [8]?
**A.** Its IC50 is 2.69 µM (active).

**Q.** What about the IC50 [9] of the same compound?
**A.** Its IC50 is > 80 µM (inactive).

**Q.** What about the EC50 [10] of the same compound?
**A.** Its EC50 is 0.311 µM (active).

**Q.** What about the IC50 [11] of the same compound?
**A.** The IC50 was > 49.8 µM (inactive).

**Q.** Which AC50 [12] does the source give for `COc1ccc(C(C)NCCC(c2ccc(OC(C)C)cc2)c2ccccc2OC)cc1` (stereo not given) here?
**A.** Its AC50 is 23.2 µM (active).

**Q.** And the AC50 [13]?
**A.** Its AC50 is 6.89 µM (active).

**Q.** What about the EC50 (Mu-type opioid receptor) of the same compound?
**A.** Its EC50 is > 92.5 µM (inactive).

**Q.** And the AC50 [14]?
**A.** The AC50 was 28.8 µM (active).

**Q.** And the EC50 [15]?
**A.** Its EC50 is 10.6 µM (active).

**Q.** And the AC50 [16]?
**A.** Its AC50 is 6.71 µM (active).

**Q.** And the EC50 [17]?
**A.** The EC50 was > 92.5 µM (inactive).

**Q.** And the EC50 [18]?
**A.** The EC50 was > 120 µM (not active).

**Q.** What about the AC50 [19] of the same compound?
**A.** Its AC50 is 11.8 µM (active).

**Q.** And the AC50 (INS1)?
**A.** The AC50 was 7.14 µM (active).

**Q.** And the EC50 [20]?
**A.** Its EC50 is > 92.5 µM (inactive).

**Q.** And the AC50 [21]?
**A.** The AC50 was 4.45 µM (active).

**Q.** What about the EC50 [22] of the same compound?
**A.** Its EC50 is 7.93 µM (active).

**Q.** For `C=CCSC1=NC(=O)/C(=C/c2cccs2)S1`, which IC50 [23] is on record?
**A.** Its IC50 is 29.7 µM (active).

**Q.** What about the IC50 (Large T antigen) of the same compound?
**A.** Its IC50 is 40.8 µM (active).

**Q.** And the AC50 [24]?
**A.** The AC50 was 8.3 µM (active).

**Q.** For `Cc1ccc(S(=O)(=O)N2C[C@@H](C)[C@]3(C2)[C@H](O)[C@H](OC(=O)Nc2cccs2)C[C@H]2C(=O)N(c4ccccc4)C(=O)[C@H]23)cc1`, which IC50 (Vero) is on record?
**A.** Its IC50 is 22.1 µM (active).
